Biological target: T1, human MCH-1R (Homo sapiens, UniProt Q99705)
T1 construct: expressed in transfected cells; host or cells: CHO-K1 (American Type Culture Collection), vector pEF/myc/cyto (Invitrogen)
Assay: MCH binding inhibition test
Conditions: membrane samples from MCH-1R expressing CHO-K1 cells, 50 pM [125I]MCH, 25° C., one hour, pH 7.4; read-out: IC50 (50% inhibition concentration of test compound to the specific [125I]MCH binding)
Description: A human MCH-1R encoding cDNA sequence [FEBS Letters, Vol. 398, 253 (1996); Biochimica et Biophisica Acta, Vol. 1401, 216 (1998)] was cloned to a plasmid vector pEF/myc/cyto (Invitrogen Corporation). The obtained expression vector was transfected to host cells CHO-K1 (American Type Culture Collection) using Lipofectamine Plus Reagent (Life Technology Inc.) to provide MCH-1R expression cells.
Membrane samples prepared from the MCH-1R expression cells were incubated with each test compound and 50 pM of [^125I]MCH (NEN Co.), in an assay buffer (50 mM Tris buffer comprising 10 mM magnesium chloride, 2 mM ethylenediamine tetraacetate, 0.01% bacitracin and 0.2% bovine serum albumin; pH 7.4) at 25° C. for an hour, followed by filtration through a glass filter GF/C (Wattman Co.). After washing the glass filter with 50 mM Tris buffer (pH 7.4) comprising 10 mM magnesium chloride, 2 mM ethylenediamine tetraacetate and 0.04% Tween-20, the radioactive activity on the glass filter was measured. The non-specific binding was measured in the presence of 1 μM human MCH and 50% inhibition concentration (IC50 value) of each test compound to the specific [^125I]MCH binding was determined.

T1 sequence (Q99705 whole entry): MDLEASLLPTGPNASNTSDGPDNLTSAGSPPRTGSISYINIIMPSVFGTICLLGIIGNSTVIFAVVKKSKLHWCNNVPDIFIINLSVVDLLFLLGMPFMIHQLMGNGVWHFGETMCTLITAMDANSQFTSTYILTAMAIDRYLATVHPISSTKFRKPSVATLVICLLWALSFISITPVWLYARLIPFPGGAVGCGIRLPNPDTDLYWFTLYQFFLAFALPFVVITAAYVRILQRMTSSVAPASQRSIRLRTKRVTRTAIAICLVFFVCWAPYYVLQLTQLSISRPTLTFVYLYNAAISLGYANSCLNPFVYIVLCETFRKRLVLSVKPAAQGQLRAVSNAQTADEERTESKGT

Going from `CCN(CC)Cc1ccc(CCn2ccc(OCc3ccc(F)cc3)cc2=O)cc1` [Example 2, 1-(2-{4-[(Diethylamino)methyl]phenyl}ethyl)-4-[(4-fluorobenzyl)oxy]pyridin-2(1H)one] to `CCCNCc1ccc(CCn2ccc(OCc3ccc(F)cc3)cc2=O)cc1` [Example 72, 4-[(4-Fluorobenzyl)oxy]-1-(2-{4-[(propylamino)methyl]phenyl}ethyl)pyridin-2(1H)-one], the IC50 falls from 5.9 nM to 2.6 nM (2.3-fold). The second is the more potent here.

`CCN(CC)Cc1ccc(CCn2ccc(OCc3ccc(Cl)cn3)cc2=O)cc1` [Example 14, 4-[(5-Chloropyridin-2-yl)methoxy]-1-(2-{4-[(diethylamino)methyl]phenyl}ethyl)pyridin-2(1H)-one] and `O=c1cc(OCc2ccc(Cl)cn2)ccn1CCc1ccc(CN2CCCC2)cc1` [Example 26, 4-[(5-Chloropyridin-2-yl)methoxy]-1-(2-[4-(pyrrolidin-1-ylmethyl)phenyl]ethyl}pyridin-2(1H)-one] are within 1.5-fold of each other in IC50: 7.3 nM for the first, 5.8 nM for the second.

With `O=c1cc(OCc2ccc(Cl)cc2)ccn1CCc1ccc(CN2C3CCC2CC3)cc1` [Example 41, 1-{2-[4-(7-Azabicyclo[2.2.1]hept-7-ylmethyl)phenyl]ethyl}-4-[(4-chlorobenzyl)oxy]pyridin-2(1H)-one] the IC50 was 3 nM.
